Like-named read-outs stand apart in the source and are kept apart here.
Key:
Caco-2 cell monolayer = experiment: in vitro; format: in vitro ADME; conditions: human, Caco-2, 90 min
Procedure, shortened: (§1)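 Caco-2 monolayers cultured 19 days on inserts (TEER >600 […]); bidirectional A-to-B and B-to-A transport at 37° C over 90 min, samples quantified by LC/MS/MS. Papp, efflux ratio and recovery calculated; ER >2 flags potential efflux substrates.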

in vitro = in vitro ADME; conditions: human
Procedure, shortened: as §1

[1] = cited from earlier work
[2] = rats; cited from earlier work

| SMILES | Papp A→B at 90 min (in vitro; Caco-2) | Papp B→A at 90 min (in vitro; Caco-2) | efflux ratio at 90 min (in vitro; Caco-2) | further results |
| --- | --- | --- | --- | --- |
| N#C[C@@]1(c2ccc3c(NC(=O)[C@@H](N)Cc4ccc(F)cc4)ncnn23)O[C@H](CO)[C@@H](O)[C@H]1O [Compound 84, (S)-2-amino-N-(7-((2R,3R,4S,5R)-2-cyano-3,4-dihydroxy-5-(hydroxymethyl)tetrahydrofuran-2-yl)pyrrolo[2,1-f][1,2,4]triazin-4-yl)-3-(4-fluorophenyl)propenamide] |  |  |  | Papp, A-B (Caco-2 cell monolayer): 0 ×10⁻⁶ cm/s; Papp, B-A (Caco-2 cell monolayer): 0 ×10⁻⁶ cm/s |
| Cc1oc(=O)oc1COC(=O)Nc1ncnn2c([C@]3(C#N)O[C@H](COC(=O)CC4CCCCC4)[C@@H](OC(=O)[C@@H](N)C(C)C)[C@H]3O)ccc12 [Compound 385, (2R,3S,4R,5R)-5-cyano-2-((2-cyclohexylacetoxy)methyl)-4-hydroxy-5-(4-((((5-methyl-2-oxo-1,3-dioxol-4-yl)methoxy)carbonyl)amino)pyrrolo[2,1-f][1,2,4]triazin-7-yl)tetrahydrofuran-3-yl L-valinate] | < 1 ×10⁻⁶ cm/s | < 1 ×10⁻⁶ cm/s |  |  |
| CC(C)(C)[C@@H](N)C(=O)OC[C@H]1O[C@@](C#N)(c2ccc3c(N)ncnn23)[C@H](O)[C@@H]1OC(=O)CC1CCCCC1 [Compound 392] | 5.6 ×10⁻⁶ cm/s | 16.4 ×10⁻⁶ cm/s | 3 |  |
| CC(C)(C)C(=O)OCOC(=O)Nc1ncnn2c([C@]3(C#N)O[C@H](COC(=O)[C@@H](N)C(C)(C)C)[C@@H](O)[C@H]3O)ccc12 [Compound 395, ((2R,3S,4R,5R)-5-cyano-3,4-dihydroxy-5-(4-((((pivaloyloxy)methoxy)carbonyl)amino)pyrrolo[2,1-f][1,2,4]triazin-7-yl)tetrahydrofuran-2-yl)methyl (S)-2-amino-3,3-dimethylbutanoate] | 0.01 ×10⁻⁶ cm/s | 0.24 ×10⁻⁶ cm/s | 19.2 |  |
| CC(C)(C)[C@H](N)C(=O)O[C@H]1[C@@H](O)[C@](C#N)(c2ccc3c(N)ncnn23)O[C@@H]1COC(=O)CC1CCCCC1 [Compound 397, (2R,3S,4R,5R)-5-(4-aminopyrrolo[2,1-f][1,2,4]triazin-7-yl)-5-cyano-2-((2-cyclohexylacetoxy)methyl)-4-hydroxytetrahydrofuran-3-yl (S)-2-amino-3,3-dimethylbutanoate] | 2.8 ×10⁻⁶ cm/s | 7.3 ×10⁻⁶ cm/s | 2.6 |  |
| CC(C)C(=O)Nc1ncnn2c([C@]3(C#N)O[C@H](COC(=O)Cc4ccccc4)[C@@H](OC(=O)[C@@H](N)C(C)(C)C)[C@H]3O)ccc12 [Compound 401, (2R,3S,4R,5R)-5-cyano-4-hydroxy-5-(4-isobutyramidopyrrolo[2,1-f][1,2,4]triazin-7-yl)-2-((2-phenylacetoxy)methyl)tetrahydrofuran-3-yl (S)-2-amino-3,3-dimethylbutanoate] |  |  |  | Papp A→B at 90 min (in vitro; Caco-2 monolayer, apical to basolateral, 90-minute incubation, read-out: Papp, A-B): 3.8 ×10⁻⁶ cm/s; Papp B→A at 90 min (in vitro; Caco-2 monolayer, basolateral to apical, 90-minute incubation, read-out: Papp, B-A): 15.3 ×10⁻⁶ cm/s; efflux ratio at 90 min (in vitro; Caco-2 monolayer, ER>2 indicates potential efflux transporter substrate, read-out: ER (efflux ratio)): 4.1 |
| CCCC(=O)Nc1ncnn2c([C@]3(C#N)O[C@H](COC(=O)CC4CCCCC4)[C@@H](OCOC(=O)C(C)(C)C)[C@H]3O)ccc12 [Compound 409, (((2R,3S,4R,5R)-5-(4-butyramidopyrrolo[2,1-f][1,2,4]triazin-7-yl)-5-cyano-2-((2-cyclohexylacetoxy)methyl)-4-hydroxytetrahydrofuran-3-yl)oxy)methyl pivalate] | 0.46 ×10⁻⁶ cm/s | 0.1 ×10⁻⁶ cm/s | 0.22 |  |
| CC(C)(C)[C@H](N)C(=O)OC[C@H]1O[C@@](C#N)(c2ccc3c(N)ncnn23)[C@H](O)[C@@H]1O [Compound 410, ((2R,3S,4R,5R)-5-(4-aminopyrrolo[2,1-f][1,2,4]triazin-7-yl)-5-cyano-3,4-dihydroxytetrahydrofuran-2-yl)methyl (S)-2-amino-3,3-dimethylbutanoate] | 0.47 ×10⁻⁶ cm/s | 1.49 ×10⁻⁶ cm/s | 3.2 |  |
| CC(C)(C)[C@@H](N)C(=O)OC[C@H]1O[C@@](C#N)(c2ccc3c(N)ncnn23)[C@H](O)[C@@H]1O [Compound 411, ((2R,3S,4R,5R)-5-(4-aminopyrrolo[2,1-f][1,2,4]triazin-7-yl)-5-cyano-3,4-dihydroxytetrahydrofuran-2-yl)methyl (R)-2-amino-3,3-dimethylbutanoate] | 0.12 ×10⁻⁶ cm/s | 2.5 ×10⁻⁶ cm/s | 20.7 |  |
| CC(=O)O[C@H]1[C@@H](OC(C)=O)[C@](C#N)(c2ccc3c(N)ncnn23)O[C@@H]1COC(=O)C(C)(C)C1CCCCC1 [Compound 412, (2R,3R,4R,5R)-2-(4-aminopyrrolo[2,1-f][1,2,4]triazin-7-yl)-2-cyano-5-(((2-cyclohexyl-2-methylpropanoyl)oxy)methyl)tetrahydrofuran-3,4-diyl diacetate] | 5.1 ×10⁻⁶ cm/s | 0.9 ×10⁻⁶ cm/s | 0.2 |  |
| CC(=O)N[C@H](C(=O)OC[C@H]1O[C@@](C#N)(c2ccc3c(N)ncnn23)[C@H](O)[C@@H]1OC(=O)CC1CCCCC1)C(C)(C)C [Compound 413, ((2R,3S,4R,5R)-5-(4-aminopyrrolo[2,1-f][1,2,4]triazin-7-yl)-5-cyano-3-(2-cyclohexylacetoxy)-4-hydroxytetrahydrofuran-2-yl)methyl (S)-2-acetamido-3,3-dimethylbutanoate] | 4.3 ×10⁻⁶ cm/s | 13.8 ×10⁻⁶ cm/s | 3.2 |  |
| N#C[C@@]1(c2ccc3c(N)ncnn23)O[C@H](CO)[C@@H](O)[C@H]1O [GS-441524] |  |  |  | T½ in plasma ([1]; plasma, following IV administration): about 24.5 hr; % F (oral bioavailability) [2]: 4.8% |
| CCC(CC)COC(=O)[C@H](C)N[P@](=O)(OC[C@H]1O[C@@](C#N)(c2ccc3c(N)ncnn23)[C@H](O)[C@@H]1O)Oc1ccccc1 [remdesivir, Remdesivir] |  |  |  | T1/2 (hydrolysis by esterases) ([1]; in vivo, iv): about 1 hr |

— patent publication US12102648B2, “Orally-bioavailable nucleoside analogs” (priority 2021, dated 2024)
